Source: ChEMBL document CHEMBL3046781, “Resistance of Helicoverpa assulta (Guenée) (Lepidoptera: Noctuidae) to fenvalerate, phoxim and methomyl in China” (2009)

Columns and labels:
Assay type in all cases: functional
Helicoverpa assulta [1] = experiment: Resistance factor, ratio of LD50 for sixth-instar larvae of Helicoverpa assulta HN2 to LD50 for sixth-instar larvae of Helicoverpa assulta at 1.8 to 183360 mg/l
Helicoverpa assulta [2] = experiment: Resistance factor, ratio of LD50 for sixth-instar larvae of Helicoverpa assulta FJ1 to LD50 for sixth-instar larvae of Helicoverpa assulta at 1.8 to 183360 mg/l
Helicoverpa assulta [3] = experiment: Resistance factor, ratio of LD50 for sixth-instar larvae of Helicoverpa assulta SD2 to LD50 for sixth-instar larvae of Helicoverpa assulta at 1.8 to 183360 mg/l
Helicoverpa assulta [4] = experiment: Resistance factor, ratio of LD50 for sixth-instar larvae of Helicoverpa assulta AH1 to LD50 for sixth-instar larvae of Helicoverpa assulta at 1.8 to 183360 mg/l
Helicoverpa assulta [5] = experiment: Insecticidal activity against sixth-instar larvae of Helicoverpa assulta at 1.8 to 183360 mg/l after 48 hr by chi-squared analysis
Helicoverpa assulta [6] = experiment: Insecticidal activity against sixth-instar larvae of Helicoverpa assulta SD1 at 1.8 to 183360 mg/l after 48 hr by chi-squared analysis
Helicoverpa assulta [7] = experiment: Insecticidal activity against sixth-instar larvae of Helicoverpa assulta GZ3 at 1.8 to 183360 mg/l after 48 hr by chi-squared analysis
Helicoverpa assulta [8] = experiment: Insecticidal activity against sixth-instar larvae of Helicoverpa assulta YN3 at 1.8 to 183360 mg/l after 48 hr by chi-squared analysis
Helicoverpa assulta [9] = experiment: Insecticidal activity against sixth-instar larvae of Helicoverpa assulta AH3 at 1.8 to 183360 mg/l after 48 hr by chi-squared analysis
Helicoverpa assulta [10] = experiment: Insecticidal activity against sixth-instar larvae of Helicoverpa assulta AH1 at 1.8 to 183360 mg/l after 48 hr by chi-squared analysis
Helicoverpa assulta [11] = experiment: Insecticidal activity against sixth-instar larvae of Helicoverpa assulta FJ2 at 1.8 to 183360 mg/l after 48 hr by chi-squared analysis
Helicoverpa assulta [12] = experiment: Insecticidal activity against sixth-instar larvae of Helicoverpa assulta HB2 at 1.8 to 183360 mg/l after 48 hr by chi-squared analysis
Helicoverpa assulta [13] = experiment: Insecticidal activity against sixth-instar larvae of Helicoverpa assulta HN1 at 1.8 to 183360 mg/l after 48 hr by chi-squared analysis
Helicoverpa assulta [14] = experiment: Resistance factor, ratio of LD50 for sixth-instar larvae of Helicoverpa assulta GZ4 to LD50 for sixth-instar larvae of Helicoverpa assulta at 39 to 12630 mg/l
Helicoverpa assulta [15] = experiment: Resistance factor, ratio of LD50 for sixth-instar larvae of Helicoverpa assulta SD2 to LD50 for sixth-instar larvae of Helicoverpa assulta at 39 to 12630 mg/l
Helicoverpa assulta [16] = experiment: Insecticidal activity against sixth-instar larvae of Helicoverpa assulta YN2 at 39 to 12630 mg/l after 48 hr by chi-squared analysis
Helicoverpa assulta [17] = experiment: Insecticidal activity against sixth-instar larvae of Helicoverpa assulta AH3 at 39 to 12630 mg/l after 48 hr by chi-squared analysis
Helicoverpa assulta [18] = experiment: Insecticidal activity against sixth-instar larvae of Helicoverpa assulta YN3 at 39 to 12630 mg/l after 48 hr by chi-squared analysis
Helicoverpa assulta [19] = experiment: Insecticidal activity against sixth-instar larvae of Helicoverpa assulta GZ3 at 39 to 12630 mg/l after 48 hr by chi-squared analysis
Helicoverpa assulta [20] = experiment: Resistance factor, ratio of LD50 for sixth-instar larvae of Helicoverpa assulta AH1 to LD50 for sixth-instar larvae of Helicoverpa assulta at 39 to 12630 mg/l
Helicoverpa assulta [21] = experiment: Insecticidal activity against sixth-instar larvae of Helicoverpa assulta GZ4 at 39 to 12630 mg/l after 48 hr by chi-squared analysis
Helicoverpa assulta [22] = experiment: Insecticidal activity against sixth-instar larvae of Helicoverpa assulta FJ1 at 39 to 12630 mg/l after 48 hr by chi-squared analysis
Helicoverpa assulta [23] = experiment: Insecticidal activity against sixth-instar larvae of Helicoverpa assulta SD1 at 39 to 12630 mg/l after 48 hr by chi-squared analysis
Helicoverpa assulta [24] = experiment: Resistance factor, ratio of LD50 for sixth-instar larvae of Helicoverpa assulta AH3 to LD50 for sixth-instar larvae of Helicoverpa assulta at 39 to 12630 mg/l
Helicoverpa assulta [25] = experiment: Insecticidal activity against sixth-instar larvae of Helicoverpa assulta at 21 to 3390 mg/l after 48 hr by chi-squared analysis
Helicoverpa assulta [26] = experiment: Resistance factor, ratio of LD50 for sixth-instar larvae of Helicoverpa assulta GZ1 to LD50 for sixth-instar larvae of Helicoverpa assulta at 21 to 3390 mg/l
Helicoverpa assulta [27] = experiment: Insecticidal activity against sixth-instar larvae of Helicoverpa assulta GZ4 at 21 to 3390 mg/l after 48 hr by chi-squared analysis
Helicoverpa assulta [28] = experiment: Insecticidal activity against sixth-instar larvae of Helicoverpa assulta HB2 at 21 to 3390 mg/l after 48 hr by chi-squared analysis
Helicoverpa assulta [29] = experiment: Resistance factor, ratio of LD50 for sixth-instar larvae of Helicoverpa assulta FJ3 to LD50 for sixth-instar larvae of Helicoverpa assulta at 21 to 3390 mg/l
Helicoverpa assulta [30] = experiment: Resistance factor, ratio of LD50 for sixth-instar larvae of Helicoverpa assulta GZ5 to LD50 for sixth-instar larvae of Helicoverpa assulta at 21 to 3390 mg/l
Helicoverpa assulta [31] = experiment: Resistance factor, ratio of LD50 for sixth-instar larvae of Helicoverpa assulta YN5 to LD50 for sixth-instar larvae of Helicoverpa assulta at 21 to 3390 mg/l
Helicoverpa assulta [32] = experiment: Resistance factor, ratio of LD50 for sixth-instar larvae of Helicoverpa assulta HB1 to LD50 for sixth-instar larvae of Helicoverpa assulta at 21 to 3390 mg/l
Helicoverpa assulta [33] = experiment: Insecticidal activity against sixth-instar larvae of Helicoverpa assulta YN1 at 21 to 3390 mg/l after 48 hr by chi-squared analysis
Helicoverpa assulta [34] = experiment: Insecticidal activity against sixth-instar larvae of Helicoverpa assulta YN8 at 21 to 3390 mg/l after 48 hr by chi-squared analysis
Helicoverpa assulta [35] = experiment: Insecticidal activity against sixth-instar larvae of Helicoverpa assulta FJ2 at 21 to 3390 mg/l after 48 hr by chi-squared analysis

Q: Which Ratio (Helicoverpa assulta [1]) does the source give for `CC(C)C(C(=O)OC(C#N)c1cccc(Oc2ccccc2)c1)c1ccc(Cl)cc1` (configuration not stated) [FENVALERATE] here?
A: 7.23

Q: And the Ratio (Helicoverpa assulta [2])?
A: 9.01

Q: What about the Ratio (Helicoverpa assulta [3]) of the same molecule?
A: 12

Q: What about the Ratio (Helicoverpa assulta [4]) of the same molecule?
A: 2054

Q: What about the LD90 (Helicoverpa assulta [5]) of the same molecule?
A: 0.723 µg/g

Q: What about the LD50 (Helicoverpa assulta [5]; Helicoverpa assulta, 48 h) of the same molecule?
A: 0.162 mg/kg

Q: And the LD90 (Helicoverpa assulta [6])?
A: 14.8 µg/g

Q: And the LD50 (Helicoverpa assulta [6]; Helicoverpa assulta, SD1, 48 h)?
A: 1.59 mg/kg

Q: What about the LD90 (Helicoverpa assulta [7]) of the same molecule?
A: 725 µg/g

Q: What about the LD50 (Helicoverpa assulta [7]; Helicoverpa assulta, GZ3, 48 h) of the same molecule?
A: 133 mg/kg

Q: And the LD90 (Helicoverpa assulta [8])?
A: 388 µg/g

Q: What about the LD50 (Helicoverpa assulta [8]; Helicoverpa assulta, YN3, 48 h) of the same molecule?
A: 227 mg/kg

Q: What about the LD90 (Helicoverpa assulta [9]) of the same molecule?
A: 470 µg/g

Q: And the LD50 (Helicoverpa assulta [9]; Helicoverpa assulta, AH3, 48 h)?
A: 251 mg/kg

Q: What about the LD90 (Helicoverpa assulta [10]) of the same molecule?
A: 833 µg/g

Q: What about the LD50 (Helicoverpa assulta [10]; Helicoverpa assulta, AH1, 48 h) of the same molecule?
A: 333 mg/kg

Q: And the LD90 (Helicoverpa assulta [11])?
A: 4.91 µg/g

Q: What about the LD50 (Helicoverpa assulta [11]; Helicoverpa assulta, FJ2, 48 h) of the same molecule?
A: 2.08 mg/kg

Q: What about the LD90 (Helicoverpa assulta [12]) of the same molecule?
A: 18 µg/g

Q: What about the LD50 (Helicoverpa assulta [12]; Helicoverpa assulta, HB2, 48 h) of the same molecule?
A: 4.62 mg/kg

Q: And the LD90 (Helicoverpa assulta [13])?
A: 23.1 µg/g

Q: And the LD50 (Helicoverpa assulta [13]; Helicoverpa assulta, HN1, 48 h)?
A: 10.5 mg/kg

Q: How did the Ratio (Helicoverpa assulta [14]) turn out when `CCOP(=S)(OCC)O/N=C(\C#N)c1ccccc1` [PHOXIM] was run?
A: 7.89

Q: And the Ratio (Helicoverpa assulta [15])?
A: 7.37

Q: What about the LD90 (Helicoverpa assulta [16]) of the same molecule?
A: 107 µg/g

Q: And the LD50 (Helicoverpa assulta [16]; Helicoverpa assulta, YN2, 48 h)?
A: 34.8 mg/kg

Q: And the LD90 (Helicoverpa assulta [17])?
A: 181 µg/g

Q: What about the LD50 (Helicoverpa assulta [17]; Helicoverpa assulta, AH3, 48 h) of the same molecule?
A: 33.3 mg/kg

Q: And the LD90 (Helicoverpa assulta [18])?
A: 56.4 µg/g

Q: And the LD50 (Helicoverpa assulta [18]; Helicoverpa assulta, YN3, 48 h)?
A: 29.2 mg/kg

Q: What about the LD90 (Helicoverpa assulta [19]) of the same molecule?
A: 65.3 µg/g

Q: What about the LD50 (Helicoverpa assulta [19]; Helicoverpa assulta, GZ3, 48 h) of the same molecule?
A: 20.9 mg/kg

Q: And the Ratio (Helicoverpa assulta [20])?
A: 50.8

Q: What about the LD90 (Helicoverpa assulta [21]) of the same molecule?
A: 51.7 µg/g

Q: And the LD50 (Helicoverpa assulta [21]; Helicoverpa assulta, GZ4, 48 h)?
A: 18.4 mg/kg

Q: What about the LD90 (Helicoverpa assulta [22]) of the same molecule?
A: 62.2 µg/g

Q: What about the LD50 (Helicoverpa assulta [22]; Helicoverpa assulta, FJ1, 48 h) of the same molecule?
A: 16.7 mg/kg

Q: And the LD90 (Helicoverpa assulta [23])?
A: 26.5 µg/g

Q: What about the LD50 (Helicoverpa assulta [23]; Helicoverpa assulta, SD1, 48 h) of the same molecule?
A: 11.9 mg/kg

Q: What about the Ratio (Helicoverpa assulta [24]) of the same molecule?
A: 14.3

Q: Which LD90 (Helicoverpa assulta [25]) does the source give for `CNC(=O)ON=C(C)SC` [METHOMYL] here?
A: 4.1 µg/g

Q: What about the LD50 (Helicoverpa assulta [25]; Helicoverpa assulta, 48 h) of the same molecule?
A: 1.45 mg/kg

Q: And the Ratio (Helicoverpa assulta [26])?
A: 28.9

Q: And the LD90 (Helicoverpa assulta [27])?
A: 55.5 µg/g

Q: What about the LD50 (Helicoverpa assulta [27]; Helicoverpa assulta, GZ4, 48 h) of the same molecule?
A: 16.7 mg/kg

Q: What about the LD90 (Helicoverpa assulta [28]) of the same molecule?
A: 108 µg/g

Q: And the LD50 (Helicoverpa assulta [28]; Helicoverpa assulta, HB2, 48 h)?
A: 15.8 mg/kg

Q: And the Ratio (Helicoverpa assulta [29])?
A: 16.3

Q: And the Ratio (Helicoverpa assulta [30])?
A: 14.5

Q: What about the Ratio (Helicoverpa assulta [31]) of the same molecule?
A: 9.87

Q: And the Ratio (Helicoverpa assulta [32])?
A: 8.45

Q: What about the LD90 (Helicoverpa assulta [33]) of the same molecule?
A: 225 µg/g

Q: What about the LD50 (Helicoverpa assulta [33]; Helicoverpa assulta, YN1, 48 h) of the same molecule?
A: 45.6 mg/kg

Q: What about the LD90 (Helicoverpa assulta [34]) of the same molecule?
A: 185 µg/g

Q: What about the LD50 (Helicoverpa assulta [34]; Helicoverpa assulta, YN8, 48 h) of the same molecule?
A: 33.3 mg/kg

Q: What about the LD90 (Helicoverpa assulta [35]) of the same molecule?
A: 108 µg/g

Q: And the LD50 (Helicoverpa assulta [35]; Helicoverpa assulta, FJ2, 48 h)?
A: 28.7 mg/kg
